In US6407126B1 (priority 1997, dated 2002):
Like-named read-outs stand apart in the source and are kept apart here.

System: Phytophthora infestans
Type: in vivo
Settings: tomato leaves, infected next day, evaluated after 6 days
[1] = 50 ppm active ingredient in the spray liquor
[2] = 100 ppm active ingredient in the spray liquor

Molecule: O=C(Nc1ccccc1-c1ccc(F)cc1)c1cccnc1Cl [Compound I.1]
- Efficacy in % of the untreated control [1]: 0%
- Efficacy in % of the untreated control [2]: 0%

Molecule: CC1(c2ccc(Oc3ccccc3)cc2)OC(=O)N(Nc2ccccc2)C1=O (stereo not drawn) [Compound VI]
- Efficacy in % of the untreated control (25 ppm active ingredient in the spray liquor): 70%
- Efficacy in % of the untreated control [1]: 70%
- Efficacy in % of the untreated control [2]: 80%

Molecule: manganese ethylenebis(dithiocarbamate) (zinc complex) [Compound IIa]
- Efficacy in % of the untreated control (12.5 ppm active ingredient in the spray liquor): 70%
